Measured values from US20260191815A1, “THIOACRYLAMIDE DERIVATIVES FOR USE IN THE PREVENTION OR TREATMENT OF LIVER FIBROSIS” (CMR CUREDIAB METABOLIC RESEARCH GMBH, priority 2022, published 2026).

Experiments:
[1] = test system: interleukin-6 (IL-6) secretion by LX2 cells; assay: Olink Inflammation immunoassay of LX2 supernatants: IL-6; type: cell-based, human; details: for amount of secreted IL-6 after combined treatment with TGF-β1: 10 μM + 5 ng/ml TGF-β1, LX2 cells
Method: The human hepatic stellate cell line LX2 was purchased from Merck. The cells were used up to passage ten and incubated under sterile conditions at 37° C. and 5% CO2. The cells were cultivated in medium containing Dulbecco's Modified Eagle's Medium with 4.5 g/l glucose (ThermoFisher), 4 mmol/l glutamine (ThermoFisher), 2% fetal bovine serum (FBS) (Merck), 100 U/ml penicillin and 100 μg/ml streptomycin (Merck). After 2 days, LX2 cells were starved for FBS for 24 h and then pretreated with 10 μM HK1 (Taros Chemicals GmbH & Co. KG) or 10 μM HK3 (Taros Chemicals GmbH & Co. KG) for 30 min. Subsequently, 5 ng/ml recombinant TGF-β1 (R&D Systems, Minneapolis, MN, USA) was added to the hepatic stellate cell cultures for 24 h. LX2 cells were also incubated with 5 ng/ml TGF-β1 alone as positive control for the hepatic stellate cell activation. Recombinant TGF-β1 was dissolved in sterile 4 mmol/l HCl (Merck) containing 0.1% bovine serum albumin (Roth Karlsruhe, Germany) as carrier protein. HK1 and HK3 were dissolved in sterile dimethyl sulfoxide (DMSO) (Sigma-Aldrich, Munich, Germany). Stimulations with 10 μM HK1, 10 μM HK3 and the corresponding vehicles (HCl and DMSO with or without HCl) alone for 24 h were also included as treatments.
LX2 cells were cultured and treated as described in Example 1. After the incubation time, the supernatants of LX2 cells were collected, centrifuged for 10 min at 2000×g at 4° C. and transferred to new tubes to measure 92 proteins in the cell culture supernatants simultaneously using the Olink Inflammation multiplex immunoassay (Olink proteomics, Uppsala, Sweden). This panel covers 92 proteins, including pro- and anti-inflammatory cytokines, growth factors, chemokines and factors involved in biological processes such as apoptosis, inflammatory and immune response, cell adhesion, chemotaxis, or fibrosis. This protein quantification method is based on a proximity extension assay technology, which combines a dual-recognition immunoassay using two matched antibodies labelled with DNA oligonucleotides, with a polymerase chain reaction (PCR) amplification and a microfluidic quantitative real-time PCR as readout. The biomarker concentrations are given as normalized protein expression (NPX) values, which were generated from the threshold cycle values from the qPCR, and represent an arbitrary unit on a log 2 scale.
Differences were analysed by one-way ANOVA followed by the Tukey method as correction for multiple testing.

[2] = test system: 3D primary human hepatocyte (PHH) spheroid NASH model; assay: Intracellular lipid accumulation (AdipoRed) in 3D PHH:NPC NASH spheroids; type: cell-based; details: NASH medium; for lipid contents of spheroids compared to NASH (100%): 1 week of exposure
Method: Experiments were conducted using HepaPredict's (HepaPredict AB, Sweden) 3D primary human hepatocyte (PHH) spheroid NASH model (e.g. as published in Bell et al. Sci Rep. 2016 May 4; 6:25187. doi: 10.1038/srep25187).
Cryopreserved primary human hepatocytes were obtained from BioIVT (USA) and nonparenchymal cells (NPC) from LifeNetHealth (USA). After thawing, PHH-NPC cocultures were seeded in a multi-well 96-well Elplasia plate (Corning) in William's E medium containing 11 mM glucose, 10 μg/mL (control) or 10 mg/mL insulin (NASH), 100 nM dexamethasone, 5.5 mg/L transferrin, 6.7 μg/L selenite, 2 mM L-glutamine, 1 U/mL penicillin, 0.1 mg/mL streptomycin, and 10% fetal bovine serum (FBS). PHH-NPC cocultures were seeded in ratio of 6:1 PHH:NPC with a total of 40,000 PHH per well. When spheroids were formed, FBS was phased out and spheroids were maintained in either the same media to provide the negative control (“Ctrl”), or with addition of albumin-conjugated free fatty acid (FFA), comprised of 240 μM palmitic acid and 240 μM oleic acid (NASH medium) to provide the positive control (“NASH”). Compound exposure was conducted in NASH medium with medium exchanges every 48-72 hours.
For cell viability and intracellular lipid accumulation assays, cells were seeded as previously reported (Bell et al., SciRep, 2016). In short, PHH and NPC were seeded as a single spheroid per well into 96-well ultra-low attachment (ULA) plates (Corning) at 1,500 viable cells per well with the PHH:NPC ratio 6:1.
After spheroid formation, cells were exposed to up to five different concentrations of the candidate molecules HK1 or HK3 (0.1 μM, 0.3 μM, 1 μM, 3 μM, and 10 μM) with or without FFA in the culture medium. All compound stocks and dilutions were prepared in DMSO, aliquoted and stored protected from light at −20° C. Fresh dosing solutions were prepared from these aliquots on each dosing day. All endpoints were evaluated after 14 days of exposure.
For statistical comparisons, normalized values for a given condition were compared to either the corresponding vehicle (DMSO) controls or the respective FFA (NASH) controls at the same time point using heteroscedastic unpaired two-tailed t-tests.
Intracellular lipid accumulation was quantified using the AdipoRed Adipogenesis Assay Kit (Lonza) following the manufacturer's instructions. […] Afterwards, spheroids were disrupted by vigorous pipetting and fluorescence was measured (Ex/Em: 485/572) using a SpectraMax iD5 multi-mode microplate reader (Molecular Devices).
To evaluate whether the two candidate compounds HK1 and HK3 impacted hepatic steatosis, we assessed their impact on intracellular triglyceride accumulation after 1 week of exposure. […]

[3] = test system: caspase 3/7 activity in HepG2 cells; assay: Caspase 3/7 activity provoked by palmitate in HepG2 cells; type: cell-based; details: for reduction of the caspase 3/7 activity provoked by palmitate, compared among thioacrylamide derivatives: 100 nM + palmitate 200 μM, n=4; for activity at 10 µM: Homo sapiens, 10 μM pre-treatment 30 min + palmitate 200 μM, 24 h, read-out: caspase 3/7 activity, % of control
Method: The potential protective effect of HK1 and HK3 on caspase 3/7 activity in HepG2 cells and primary human hepatocytes was analysed.
HepG2 cells were obtained from Merck (Darmstadt, Germany) (ECACC-certified), while primary human hepatocytes were obtained from Thermo Fisher Scientific (Waltham, MA, USA), and all were cultured according to the instructions of the respective manufacturers. During experiments, cells were cultured in serum-free medium. Unless otherwise stated, cells were treated with 200 μM bovine serum albumin (BSA)-conjugated palmitate (Cayman Chemicals, Ann Arbor, MI) alone or in combination with 10 μM HK1 (Taros Chemicals GmbH & Co. KG, Dortmund, Germany) and HK3 (Taros Chemicals GmbH & Co. KG, Dortmund, Germany) 30 min prior to palmitate exposure for 24 hours. The vehicle BSA was used according to the palmitate concentration and DMSO according to HK1 and HK3 concentration. 2 μM Staurosporine (Abcam, Cambridge, GB) was used as a positive and 100 μM Caspase 3/7 inhibitor (CI) (Cayman Chemicals) as a negative control.
Differences were analysed by one-way ANOVA.
A hepatoprotective effect was determined as described in Example 4. A treatment was performed with HK1, HK2, HK3, HK4 or HK5 (100 nM) either alone or in combination with palmitate (200 μM).
Differences were analysed by one-way ANOVA, n=4.

Compound | amount of secreted IL-6 after combined treatment with TGF-β1 [1] | accumulation of intracellular lipids compared to the positive control ([2]; across 1 μM, 3 μM and 10 μM, 1 week) | reduction of the caspase 3/7 activity provoked by palmitate, compared among thioacrylamide derivatives [3] | activity at 10 µM [3] [%] | attenuation of protein content of IL-6 compared to TGF-treated LX2 cells ([1]; 10 μM + 5 ng/ml TGF-β1) [%] | lipid contents of spheroids compared to NASH (100%) ([2]; 1 μM) [%] | lipid contents of spheroids compared to NASH (100%) ([2]; 3 μM) [%] | lipid contents of spheroids compared to NASH (100%) ([2]; 10 μM) [%]
Cc1cc(NC(=S)/C(C#N)=C(\O)C2CC2)ccc1[N+](=O)[O-] [HK3, 2-Cyano-3-cyclopropyl-3-hydroxy-N-(3-methyl-4-nitro-phenyl)-thioacrylamide] | downregulated | 46-49% | strongest reduction | 42.3 | – | – | – | –
Cc1cc(NC(=S)/C(C#N)=C(\O)C2CC2)ccc1F [HK1, 2-Cyano-3-cyclopropyl-N-(4-fluoro-3-methyl-phenyl)-3-hydroxy-thioacrylamide] | downregulated | – | stronger reduction | 263 | 59 | 79 | 81 | 62
